From publication PMC12654037, “Norditerpene Natural Products from Subterranean Fungi with Anti-Parasitic Activity” (Microorganisms, 2025)
Like-named read-outs stand apart in the source and are kept apart here.

What was measured:
P. falciparum line Dd2 = assay: Plasmodium falciparum growth inhibition assay (SYBR Green I), Dd2
Method: (§2) Plasmodium falciparum growth inhibition assay: Antiplasmodial EC50 results were determined using a fluorescence-based SYBR Green I assay performed using asynchronous cultures [30, 35]. […] Plates were subsequently frozen at −80 °C to facilitate lysis. […] Relative fluorescence units (RFUs) were normalized based on chloroquine-treated and no treatment controls. Serial dilutions of compounds were prepared in RPMI with final assay conditions of ≤0.2% DMSO. Each assay was conducted in triplicate with three biological replicates.

HFF cells = assay: HFF cytotoxicity assay; format: cell-based
Method: (§1) HCT-8 and HFF cytotoxicity assays: Cytotoxicity of the compounds was determined against both confluent (the conditions of the infection assays) and growing HCT-8 and HFF host cells, as previously described. Cells were seeded into white-sided, clear-bottom 96-well plates and grown to either 40% or 100% confluency. Compounds were added to cells at various concentrations up to 100 µM in a final DMSO concentration of 0.5%. DMSO was run in parallel as a vehicle control. After 48 h, the viability of the cells was determined by either quantification of cellular ATP (Cell-Titer Glo cell viability assay; Promega, Madison WI, USA) or by MTT assay. Viability was determined 24 h after compound addition to HFF cells or 48 h after compound addition to HCT-8 cells or HepG2 cells. The percent cell growth was then calculated with the following formula: % Cell Growth = [RLUcompound/RLUDMSO] × 100. Samples were run in triplicate with two to three biological replicates.

[1] = tested on: G. lamblia WBC6 and CBG99 trophozoites; assay: Giardia lamblia trophozoite growth inhibition assay; format: cell-based; conditions: 72 h
Method: Compound inhibition assay against Giardia lamblia WBC6 and CBG99 trophozoites: Biological replicates of growth inhibition assays were performed using wild-type G. lamblia WBC6 and G. lamblia CBG99 trophozoites at 37 °C under reduced oxygen conditions in a sealed 0.5 mL airtight sterile tube (USA Scientific, Ocala, FL, USA), following the susceptibility assay described below. G. lamblia trophozoites were grown in TYI-S-33 medium supplemented with 10% bovine serum and 0.05 mg/mL bovine bile, as previously described. A 3-fold serial concentration of pure compounds starting at 29 µM was screened against 75,000 cells/mL of parasites in modified TYI-S-33 medium with a final dimethyl sulfoxide (DMSO) concentration of 0.14%. Metronidazole was run in parallel at a final highest concentration of 66.7 µM and 3-fold subsequent serial dilutions. The untreated negative control contained 0.14% of DMSO. Sealable test tubes filled to its maximum volume of 700 µL were used to perform this assay. The test tubes were incubated at 37 °C for 72 h. After incubation, the tubes were chilled on ice, and the reaction was transferred to 96-well plates. In the plate, 50 µL of an ATP binding luminescence marker, CellTiter-Glo (Promega, Madison, WI, USA) or 10 µL of 2.5 mg/mL d-luciferin (GoldBio, St Louis, MO, USA) was added to each well and allowed to develop at room temperature for 10 min [31, 36]. The assay was read and analyzed using an EnVision Plate Reader (Perkin Elmer, Waltham, MA, USA). Response curves and EC50 values (the concentration at which 50% of G. lamblia trophozoite growth was inhibited) were calculated using GraphPad Prism (GraphPad, LaJolla, CA, USA).

HepG2 human hepatocytes = assay: HepG2 cytotoxicity assay (MTS); format: cell-based; conditions: 48 h, mean +/- SD
Method: HepG2 cytotoxicity assay: Mammalian cell cytotoxicity was assessed in HepG2 human hepatocytes using an MTS 3-(4,5-dimethylthiazol-2-yl)-5-(3-carboxymethoxyphenyl)-2-(4-sulfophenyl)-2H-tetrazolium)-based cytotoxicity assay. For cytotoxicity testing, ∼2250 cells were seeded into each well of a 384-well microtiter plate and incubated for 24 h. Serial dilutions of the compounds were added in triplicate starting at 25 μM. Cells were further incubated for an additional 48 h at 37 °C in an atmosphere containing 5% CO2. Zero-growth control wells were incubated with 5% Triton X-100 for 5 min prior to MTS addition. Following the addition of MTS to all wells, the plates were incubated for an additional 4 h under the same environmental conditions before taking absorbance measurements. Absorbance values were recorded at 490 nm using a Synergy Neo2 multimode reader (BioTek), and values were normalized based on Triton X-100-lysed and no treatment controls. Samples were run in triplicate in each assay, and the experiments were repeated three times.

HCT-8 cytotoxicity assay = format: cell-based; conditions: human; sub-confluent (~40% confluency); read-out: EC50 cytotoxicity against sub-confluent HCT-8 cells
Method: as §1

HCT-8 cells = assay: HCT-8 cytotoxicity assay; format: cell-based
Method: as §1

P. falciparum 3D7 = assay: Plasmodium falciparum growth inhibition assay (SYBR Green I), 3D7; conditions: 3D7, 72 h, read-out: EC50 3D7(M)
Method: as §2

HuF fibroblast cell line = conditions: cited from earlier work
C. parvum = C. parvum growth inhibition assay (Cp-NLuc-infected HCT-8 cells); format: cell-based, Cryptosporidium parvum; conditions: for EC50: Cryptosporidium parvum
Method: C. parvum growth inhibition assays: The in vitro growth inhibition assay of C. parvum has been previously described. Briefly, clear-bottom, white-sided 96 well plates were seeded with HCT-8 cells. Once the cells reached between 50% and 75% confluency, they were infected with Cp-NLuc oocysts (10,000/well) in complete media containing 0.6% taurocholate. At 24 h post-infection (hpi), the infected cells were treated with compounds at various concentrations. DMSO was used as a vehicle control in parallel. Parasite growth was determined at 72 hpi by measuring relative luminescence units (RLUs) using Promega Nano-Glo substrate (Promega, Madison, WI, USA) and a SpectraMax® L Microplate Reader (Molecular Devices, San Jose, CA, USA). The percent inhibition of parasite growth was calculated as [(RLUDMSO − RLUcompound)/RLUDMSO] × 100.

T. gondii = T. gondii growth inhibition assay (TgRH-Luc:GFP-infected HFF cells); format: cell-based; conditions: Toxoplasma gondii, 10 µM to 156 nM, Figure 2E
Method: T. gondii growth inhibition assays: The T. gondii inhibition assay was described previously. Briefly, HFF cells were seeded onto white-sided, clear-bottom 96 well plates, grown to confluence, and then 5000 TgRH-Luc:GFP parasites were added to each well. At 24 hpi, compounds or DMSO were added. The growth of the parasites was determined by relative luminescence at 48 hpi using Promega Bright-Glo (Promega, Madison, WI, USA) substrate. Plates were read, and the percent inhibition of parasite growth was calculated as described above. Determination of -static versus -cidal activity was conducted as indicated above, with parasite growth quantified after 48 h of infection. Each sample was run in triplicate, and each experiment was repeated three times.

Question: With `CO[C@H]1OC(=O)C=C2C1=C[C@H]1OC(=O)[C@@]3(C)CCC[C@@]2(C)[C@@H]13` [compound 7, oidiolactone B] as the compound, how does the “SI: selectivity index=EC50 HepG2/ EC50 compound” value (P. falciparum line Dd2) read?
Answer: Its value is 11.

Question: And the EC50 (P. falciparum line Dd2; Plasmodium falciparum, DD2, 72 h, read-out: EC50 Dd2 (M))?
Answer: Its EC50 is 9.83e-07 ± 1.11e-07 M.

Question: And the “TC50 HFF (confluent)” value (HFF cells; confluent)?
Answer: Its value is over 30000 nM.

Question: And the “toxicity to host cells (no toxicity up to)” value (HFF cells; confluent HFF, conditions of the infection assay, 24 h, cellular ATP)?
Answer: Its value is over 100 µM.

Question: And the “cytotoxicity against sub-confluent HFF” value (HFF cells; sub-confluent)?
Answer: Its value is “no cytotoxicity observed”.

Question: What about the “activity against G. lamblia (no activity up to)” value [1] of the same compound?
Answer: The value was over 29 µM.

Question: What about the TC50 HepG2 (HepG2 human hepatocytes) of the same compound?
Answer: The TC50 HepG2 was 10300 ± 2180 nM.

Question: What about the EC50 at 48 h (HCT-8 cytotoxicity assay) of the same compound?
Answer: Its EC50 at 48 h is 2100 nM.

Question: And the “TC50 HCT-8 (confluent)” value (HCT-8 cells; confluent)?
Answer: The value was over 30000 nM.

Question: What about the “toxicity to host cells (no toxicity up to)” value (HCT-8 cells; confluent HCT-8, conditions of the infection assay, 48 h, cellular ATP) of the same compound?
Answer: The value was over 100 µM.

Question: What about the “more cytotoxic towards host HCT-8 cells versus oidiolactone A” value (HCT-8 cells; non-confluent conditions) of the same compound?
Answer: Its value is ~ 15 x.

Question: And the “TC50 HCT-8 (sub-confluent)” value (HCT-8 cells; sub-confluent)?
Answer: The value was 2100 ± 300 nM.

Question: What about the EC50 (P. falciparum 3D7) of the same compound?
Answer: The EC50 was 1.22e-06 ± 4.19e-07 M.

Question: What about the “cytotoxicity against human fibroblast” value (HuF fibroblast cell line) of the same compound?
Answer: Its value is “no cytotoxicity observed”.

Question: And the “TC50 HuF (sub-confluent)” value (HuF fibroblast cell line; sub-confluent, ref Rusman et al. 2020 [25])?
Answer: Its value is 21400 ± 900 nM.

Question: And the “increase in inhibitory activity against C. parvum versus oidiolactone A” value (C. parvum; 7,8 double bond vs. 7α,8α-epoxy group)?
Answer: Its value is 2 fold.

Question: What about the EC50 (C. parvum; HCT-8, abstract, read-out: EC50 against C. parvum) of the same compound?
Answer: The EC50 was 240 nM.

Question: What about the EC50 (C. parvum; Cp-NLuc-infected HCT-8 cells, 7.5 µM to 117 nM, Figure 2E, read-out: C. parvum EC50) of the same compound?
Answer: The EC50 was 238 nM.

Question: And the EC50 (T. gondii)?
Answer: The EC50 was 580 nM.
